Test results: patent publication US12144795B2, “Cannabidiol compositions having modified cannabinoid profiles” (priority 2018, dated 2024)

Experiment: Stability studies of CBD prepared via Protocol 3 (crude, pure, 2x recrystallized; 5° C., 25° C./60% RH, 40° C./75% RH)
Type: physicochemical

Structure (SMILES): C=C(C)[C@@H]1CCC(C)=C[C@H]1c1c(O)cc(CCCCC)cc1O [Crude CBD]
- Appearance (25° C./60% RH, 0 month): White
- Assay by HPLC (25° C./60% RH, 0 month): 99.9%
- Each unspecified impurity: RRT~1.540 (25° C./60% RH, 0 month): 0.06%
- Each unspecified impurity: RRT~1.690 (25° C./60% RH, 0 month): 0.11%
- Related substances by HPLC (low level): Δ9-Tetrahydrocannabinol (25° C./60% RH, 0 month): 26 ppm
- Related substances by HPLC: 4-Monobromo-CBD (25° C./60% RH, 0 month): <0.03% (0.02%)
- Related substances by HPLC: Olivetol (25° C./60% RH, 0 month): <0.03% (ND)
- Related substances by HPLC: Sum of impurities, ≥0.05% (25° C./60% RH, 0 month): 0.17%
- Related substances by HPLC: Δ9-Tetrahydrocannabinol (25° C./60% RH, 0 month): <0.02% (ND)
- Appearance (25° C./60% RH, 1 month): Off-White
- Assay by HPLC (25° C./60% RH, 1 month): 98.2%
- Each unspecified impurity: RRT~1.927 (25° C./60% RH, 1 month): 0.07%
- Each unspecified impurity: RRT~2.146 (25° C./60% RH, 1 month): 0.12%
- Related substances by HPLC (low level): Δ8-Tetrahydrocannabinol (25° C./60% RH, 1 month): 6 ppm
- Related substances by HPLC (low level): Δ9-Tetrahydrocannabinol (25° C./60% RH, 1 month): 29 ppm
- Related substances by HPLC: 4-Monobromo-CBD (25° C./60% RH, 1 month): <0.03% (0.02)
- Related substances by HPLC: Olivetol (25° C./60% RH, 1 month): <0.03% (ND)
- Related substances by HPLC: Sum of impurities, ≥0.05% (25° C./60% RH, 1 month): 0.19%
- Related substances by HPLC: Δ8-Tetrahydrocannabinol (25° C./60% RH, 1 month): <0.02% (ND)
- Related substances by HPLC: Δ9-Tetrahydrocannabinol (25° C./60% RH, 1 month): <0.02% (ND)
- Appearance (25° C./60% RH, 2 months): Off-White
- Assay by HPLC (25° C./60% RH, 2 months): 99.5%
- Each unspecified impurity: RRT~1.931 (25° C./60% RH, 2 months): 0.06%
- Each unspecified impurity: RRT~2.151 (25° C./60% RH, 2 months): 0.09%
- Related substances by HPLC (low level): Δ8-Tetrahydrocannabinol (25° C./60% RH, 2 months): 5 ppm
- Related substances by HPLC (low level): Δ9-Tetrahydrocannabinol (25° C./60% RH, 2 months): 27 ppm
- Related substances by HPLC: 4-Monobromo-CBD (25° C./60% RH, 2 months): <0.03% (0.02%)
- Related substances by HPLC: Olivetol (25° C./60% RH, 2 months): <0.03% (0.02%)
- Related substances by HPLC: Sum of impurities, ≥0.05% (25° C./60% RH, 2 months): 0.15%
- Related substances by HPLC: Δ8-Tetrahydrocannabinol (25° C./60% RH, 2 months): <0.02% (ND)
- Related substances by HPLC: Δ9-Tetrahydrocannabinol (25° C./60% RH, 2 months): <0.02% (ND)
- Appearance (25° C./60% RH, 3 months): Off-white
- Assay by HPLC (25° C./60% RH, 3 months): 98.1%
- Each unspecified impurity: RRT~1.983 (25° C./60% RH, 3 months): 0.05%
- Each unspecified impurity: RRT~2.260 (25° C./60% RH, 3 months): 0.10%
- Related substances by HPLC (low level): Δ8-Tetrahydrocannabinol (25° C./60% RH, 3 months): 8 ppm
- Related substances by HPLC (low level): Δ9-Tetrahydrocannabinol (25° C./60% RH, 3 months): 13 ppm
- Related substances by HPLC: 4-Monobromo-CBD (25° C./60% RH, 3 months): <0.03% (0.02%)
- Related substances by HPLC: Olivetol (25° C./60% RH, 3 months): <0.03% (ND)
- Related substances by HPLC: Sum of impurities, ≥0.05% (25° C./60% RH, 3 months): 0.15%
- Related substances by HPLC: Δ8-Tetrahydrocannabinol (25° C./60% RH, 3 months): <0.02% (ND)
- Related substances by HPLC: Δ9-Tetrahydrocannabinol (25° C./60% RH, 3 months): <0.02% (ND)
- Appearance (40° C./75% RH, 0 month): White
- Assay by HPLC (40° C./75% RH, 0 month): 99.9%
- Each unspecified impurity: RRT~1.540 (40° C./75% RH, 0 month): 0.06%
- Each unspecified impurity: RRT~1.690 (40° C./75% RH, 0 month): 0.11%
- Related substances by HPLC (low level): Δ9-Tetrahydrocannabinol (40° C./75% RH, 0 month): 26 ppm
- Related substances by HPLC: 4-Monobromo-CBD (40° C./75% RH, 0 month): <0.03% (0.02%)
- Related substances by HPLC: Olivetol (40° C./75% RH, 0 month): <0.03% (ND)
- Related substances by HPLC: Sum of impurities, ≥0.05% (40° C./75% RH, 0 month): 0.17%
- Related substances by HPLC: Δ9-Tetrahydrocannabinol (40° C./75% RH, 0 month): <0.02% (ND)
- Appearance (40° C./75% RH, 1 month): Yellow Powder
- Assay by HPLC (40° C./75% RH, 1 month): 98.7%
- Each unspecified impurity: RRT~1.928 (40° C./75% RH, 1 month): 0.06%
- Each unspecified impurity: RRT~2.150 (40° C./75% RH, 1 month): 0.11%
- Related substances by HPLC (low level): Δ8-Tetrahydrocannabinol (40° C./75% RH, 1 month): 7 ppm
- Related substances by HPLC (low level): Δ9-Tetrahydrocannabinol (40° C./75% RH, 1 month): 28 ppm
- Related substances by HPLC: 4-Monobromo-CBD (40° C./75% RH, 1 month): <0.03% (0.02)
- Related substances by HPLC: Olivetol (40° C./75% RH, 1 month): <0.03% (ND)
- Related substances by HPLC: Sum of impurities, ≥0.05% (40° C./75% RH, 1 month): 0.17%
- Related substances by HPLC: Δ8-Tetrahydrocannabinol (40° C./75% RH, 1 month): <0.02% (ND)
- Related substances by HPLC: Δ9-Tetrahydrocannabinol (40° C./75% RH, 1 month): <0.02% (ND)
- Appearance (40° C./75% RH, 2 months): Off-White
- Assay by HPLC (40° C./75% RH, 2 months): 99.6%
- Each unspecified impurity: RRT~1.931 (40° C./75% RH, 2 months): 0.06%
- Each unspecified impurity: RRT~2.151 (40° C./75% RH, 2 months): 0.07%
- Related substances by HPLC (low level): Δ8-Tetrahydrocannabinol (40° C./75% RH, 2 months): 4 ppm
- Related substances by HPLC (low level): Δ9-Tetrahydrocannabinol (40° C./75% RH, 2 months): 27 ppm
- Related substances by HPLC: 4-Monobromo-CBD (40° C./75% RH, 2 months): <0.03% (0.02)
- Related substances by HPLC: Olivetol (40° C./75% RH, 2 months): <0.03% (ND)
- Related substances by HPLC: Sum of impurities, ≥0.05% (40° C./75% RH, 2 months): 0.13%
- Related substances by HPLC: Δ8-Tetrahydrocannabinol (40° C./75% RH, 2 months): <0.02% (ND)
- Related substances by HPLC: Δ9-Tetrahydrocannabinol (40° C./75% RH, 2 months): <0.02% (ND)
- Appearance (40° C./75% RH, 3 months): Off-white
- Assay by HPLC (40° C./75% RH, 3 months): 99.0%
- Each unspecified impurity: RRT~1.982 (40° C./75% RH, 3 months): 0.05%
- Each unspecified impurity: RRT~2.258 (40° C./75% RH, 3 months): 0.09%
- Related substances by HPLC (low level): Δ8-Tetrahydrocannabinol (40° C./75% RH, 3 months): 8 ppm
- Related substances by HPLC (low level): Δ9-Tetrahydrocannabinol (40° C./75% RH, 3 months): 17 ppm
- Related substances by HPLC: 4-Monobromo-CBD (40° C./75% RH, 3 months): <0.03% (0.02)
- Related substances by HPLC: Olivetol (40° C./75% RH, 3 months): <0.03% (ND)
- Related substances by HPLC: Sum of impurities, ≥0.05% (40° C./75% RH, 3 months): 0.14%
- Related substances by HPLC: Δ8-Tetrahydrocannabinol (40° C./75% RH, 3 months): <0.02% (ND)
- Related substances by HPLC: Δ9-Tetrahydrocannabinol (40° C./75% RH, 3 months): <0.02% (ND)
- Appearance (40° C./75% RH, 5 months): Beige/off-
- Assay by HPLC (40° C./75% RH, 5 months): 98.6%
- Each unspecified impurity: Methadienol deg-1 (40° C./75% RH, 5 months): deg-1: 0.03%
- Each unspecified impurity: RRT~0.956 (40° C./75% RH, 5 months): 0.04%
- Each unspecified impurity: RRT~1.918 (40° C./75% RH, 5 months): 0.05%
- Related substances by HPLC (low level): Δ8-Tetrahydrocannabinol (40° C./75% RH, 5 months): 36 ppm
- Related substances by HPLC (low level): Δ9-Tetrahydrocannabinol (40° C./75% RH, 5 months): 24 ppm
- Related substances by HPLC: 4-Monobromo-CBD (40° C./75% RH, 5 months): <0.03% (ND)
- Related substances by HPLC: Olivetol (40° C./75% RH, 5 months): <0.03% (ND)
- Related substances by HPLC: Sum of impurities, ≥0.05% (40° C./75% RH, 5 months): 0.05%
- Related substances by HPLC: Δ8-Tetrahydrocannabinol (40° C./75% RH, 5 months): <0.02% (ND)
- Related substances by HPLC: Δ9-Tetrahydrocannabinol (40° C./75% RH, 5 months): <0.02% (ND)
